# According to patent publication US20250387371A1, “COMPOSITIONS AND FORMULATION METHODS FOR SUSTAINED LOCAL RELEASE OF ANTIFIBROTICS” (THE HOPKINS UNIVERISTY, priority 2022, published 2025):
# Where two headings read alike, the source gives them in different places.
# Legend:
# [1] = system: human primary colonic fibroblasts (CCD-18Co) activated with TGF-β; assay: High throughput microscopy-based drug screening (α-SMA and COL1A1 immunocytochemistry); assay type: cell-based; settings: TGF-β-activated CCD-18Co, 4 mM
# Text: To identify potential antifibrotic agents, a high-throughput microscope-based drug screening approach using human primary colonic fibroblasts (CCD-18Co) activated with transforming growth factor-β (TGF-β) was used. A panel of 1,586 FDA-approved small molecule drugs were then screened for their ability to reduce expression of α-SMA and type 1 collagen (COL1A1) as assessed by fluorescent immunocytochemistry. Based on its known antifibrotic effects, pirfenidone was included in this screen and found effective at a dose of 4 mM (FIG. 1A).
# Human primary colonic fibroblasts (CCD-18Co) were seeded in 96 well flat bottom plate. Twenty-four hours later, cells were washed and starved with alpha-MEM medium without FBS for 24 h. The cells were then washed and the media was replaced with alpha-MEM supplemented with 10% FBS containing 5 ng/ml TGF-β and activated for 48 h. The cells were then washed again and fresh medium containing 5 ng/ml TGF-β and 10 μM of a drug from a library of 1,586 FDA approved small molecules was applied to the cells. After 4 days, the cells were fixed with 10% neutral formalin for 15 min and permeabilized with 0.5% Triton X-100 in PBS. […] Images were analyzed with Image J2 Fiji (NIH, Bethesda, MD) to determine the drug treatment efficacy as assessed by reduction in the intensity of α-SMA and collagen staining per cell. […]
# LX2 cells = assay: RT-PCR of α-SMA (ACTA2) expression in activated LX2 cells; assay type: cell-based, human; settings: activated LX-2
# Experimental: (§1) RNA was extracted using TRIzol Reagent as previously described. Li et al., 2017. RNAs were reverse transcribed into cDNA with ReverAid First Strand cDNA synthesis kit. SYBR Green PCR Master Mix kit was utilized for the real time PCR using a QuantStudio 3 PCR machine (Applied Biosystems, Waltham, MA). Primers used are detailed in Table 6. Each reaction was performed in triplicate for each primer with a no-template negative control. QuantStudio Design and Analysis Software 1.5.2 was used to analyze the data using the ΔΔCT method.
# [2] = system: small intestine fibrosis mouse model; assay: Mouse intestine transplant fibrosis model; assay type: in vivo; settings: three times daily oral 100 mg/kg for 7 days
# Experimental: An intestine transplantation model (FIG. 6) that was previously used to validate the antifibrotic efficacy of oral pirfenidone was employed. Meier et al., 2016. Sul-NC at a dose of 50 mg/kg or 150 mg/kg was given as a single injection at the site of the transplant and compared to oral pirfenidone at the dose previously described to be effective in the model, three times daily oral dosing with 100 mg/kg. […] Again, there was a striking difference between the dose and frequency of administration when comparing pirfenidone (three times daily dosing, total dose 2,100 mg/kg) vs Sul-NC (single dose, 50 mg/kg).
# 5-8 week old male C57BL/6J mice were utilized in an intestine transplantation model with minor modifications (FIG. 6). Meier et al., 2016. Briefly, a 6-cm segment of small intestine proximal to the ileocecal valve was excised from a donor mouse in a sterilized biosafety cabinet. The tissue was washed with cold saline 3 times, and carefully cut into 1 cm segments that were placed in a petri dish with cold saline. The back neck of the recipient mice was shaved. […] Four representative images were taken for each tissue to quantify the collagen thickness. For each image, 10 different areas were measured by a masked observer with image J Fiji (NIH, Bethesda, MD). Data were analyzed with GraphPad Prism 9 (San Diego, CA, USA).
# [3] = system: bleomycin-induced mouse skin fibrosis model; assay: Bleomycin-induced skin fibrosis model; assay type: in vivo; settings: 4 weeks
# Experimental: There is a paucity of animal models of GI tract fibrosis/strictures. Li et al., 2021. To obtain preliminary evidence regarding efficacy of Sul-NC as antifibrotic in vivo, a well-described and reproducible bleomycin-induced rodent skin fibrosis model was used. Yamamoto et al., 1999. To induce fibrosis, bleomycin was injected in mouse skin at five spots within a 1×1 cm region on the back every other day for four weeks (FIG. 3), as previously described. Yamamoto et al., 1999. […] In addition, the Masson's Trichrome staining confirmed that the thickness of the dermis was due to deposition of collagen and other ECM proteins (blue staining in the figure). Of note, there was a striking difference between the dose and frequency of administration when comparing pirfenidone (daily dosing, total dose 2,800 mg/kg) vs Sul-NC (once weekly, total dose 200 mg/kg).
# 5-8 week old male C57BL/6J mice were utilized for bleomycin induced skin fibrosis model. The upper back was shaved, and 100 μL bleomycin (0.5 mg/ml in PBS) was injected subcutaneously every other day into one of five sectors in a defined 1-cm^2 area (see FIG. 3). […] Five representative images for each mouse were taken to quantify skin dermal thickness. For each image, five different areas were measured by a masked observer with image J Fiji (NIH, Bethesda, MD). Data were analyzed with GraphPad Prism 9 (San Diego, CA, USA).
# CCD-18Co cells [4] = assay: RT-PCR of α-SMA (ACTA2) expression in activated CCD-18Co cells; assay type: cell-based, human
# Experimental: as §1
# [5] = mouse, in vivo, sc, 50 mg/kg
# Experimental: Each treatment group contain 3-9 mice. […] MTD was injected and blood were taken for liver and kidney function test (Table 5).
# CCD-18Co cells [6] = assay: Western blot of α-SMA and COL1A1 in activated CCD-18Co cells; assay type: cell-based, human; settings: 10 μM, 96 h
# Experimental: (§2) LX2 and CCD-18Co were seeded in 6 well plate. Twenty-four hours later, cells were washed and starved with Alpha MEM medium without FBS for 24 h. The cells were then washed and the media was replaced with Alpha MEM supplemented with 10% FBS containing 5 ng/ml TGF-β and activated for 48 h. […] The cells were then washed three times with cold PBS and treated with protein lysis RIPA buffer with complete protease inhibitor cocktail. Protein concentration was determined with Pierce BCA protein Assay Kit. 20 μg of total protein lysate from each treatment group was loaded into each well of a Mini-Protean TGX gel (4-15%), and electrophoresis was performed using 1× Tris/Glycine/SDS Buffer. Proteins were then transferred to nitrocellulose membranes using 1× Tris/Glycine with methanol. Membranes were blocked with Intercept (TBS) blocking buffer for 1 h at room temperature and then incubated with anti-α-SMA antibody (1:1000), and COL1A1 antibody (1:1000) at 4° C. overnight. Membranes were washed with TBS-0.1% Tween three times for 10 min each, and then incubated in IRDye-Secondary antibodies (1:10,000) at room temperature for 1 h. The membranes were then washed with TBS-0.1% Tween three times for 10 min each and rinsed with 1×TBS to remove residual Tween20. Membranes were then scanned with an Odyssey Image System (Li-Cor, Lincoln, NE, USA).
# C57BL/6J mice = settings: both, mouse, in vivo; for Survival: ip
# in vivo = settings: both, C57BL/6J, mouse, sc
# [7] = In vitro drug release under accelerated conditions (rapid equilibrium dialysis); assay type: physicochemical
# Experimental: Sul-NC (5 mg/mL, 50 μL) were placed in a rapid equilibrium dialysis s(RED) device with an 8 kDa molecular weight cutoff (n=3). The outer reservoir was filled with 1 mL of 0.5% Tween 80 in phosphate buffered saline (PBS-T) solution. The samples were incubated on an orbital shaker with temperature control at 37° C. and 300 rpm. Every 24 h, 1 mL of the solution was collected and replenished with fresh 1 mL PBS-T solution. […] Mobile phase A was water containing 0.1% trifluoroacetic acid (TFA) and mobile phase B was acetonitrile containing 0.1% TFA. The isocratic flow was composed 70% of mobile phase A and 30% mobile phase B at 1 mL/min flow rate for 10 min. […] The drug amount was quantified and used to calculate the accumulation percentage. The release curves were plotted with GraphPad Prism 9 (San Diego, CA).
# [8] = system: human hepatic stellate cells (LX2); assay: Western blot of α-SMA and COL1A1 in activated LX2 cells; assay type: cell-based; settings: activated LX2, 10 μM, 96 h
# Experimental: as §2
# [9] = topical dosing; cited from earlier work
# physchem = assay type: physicochemical
SMILES,decrease in the staining of α-SMA and COL1A1 [1],concentration below which no effect on ACTA2 expression was shown (LX2 cells),collagen layer thickness [2],thickness of the dermis compared to Vehicle ([3]; daily oral 100 mg/kg),concentration below which no effect on ACTA2 expression was shown (CCD-18Co cells [4]),blood level of ALT and BUN [5],protein production of α-SMA and COL1A1 (Western blot) (CCD-18Co cells [6]),dose resulting in reduced survival (C57BL/6J mice),Survival (C57BL/6J mice; 15 mg/kg),Survival (C57BL/6J mice; 30 mg/kg),Survival (C57BL/6J mice; 40 mg/kg),MTD (in vivo),passage of free drug through the dialysis membrane [7],thickness of the dermis compared to Vehicle ([3]; 10-mg/kg IP every other day),protein production of α-SMA and COL1A1 (Western blot) [8],elimination via the feces [9],solubility (physchem)
Cc1ccc(=O)n(-c2ccccc2)c1 [pirfenidone],effective,4 mM,9.1±0.3 μm,significantly reduced,4 mM,–,–,–,–,–,–,–,–,–,–,–,–
Clc1ccc(CSC(Cn2ccnc2)c2ccc(Cl)cc2Cl)cc1 (centres unmarked) [sulconazole],–,–,–,–,–,increased,significantly reduced,50 mg/kg,5/5 (100%),5/5 (100%),5/5 (100%),50 mg/kg,not impeded by the dialysis membrane,significantly reduced,significantly reduced,one of the primary clearance routes,240 µg/mL
